How the values were obtained:
HT29 tumor = test: SC HT29 colorectal tumor xenograft; format: in vivo, athymic NCr-nu/nu mice; conditions: LT1009 50 mg/kg ip q2d; Avastin 20 mg/kg iv q4d; 5-FU 75 mg/kg ip q4d
Procedure: Nude mice were implanted sc near the right flank with one fragment per mouse of HT29 tumor from an in vivo passage. All treatments were initiated the day when 60 mice in each experiment established tumors ranging in size from approximately 100 to 200 mm^3. There were ten mice per treatment group. […] 75 mg/kg 5-FU and 20 mg/kg Avastin were administered ip and iv at a dosage of 75 mg/kg/dose and 20 mg/kg/dose, respectively, q4d, injected in a volume of 0.1 mL/10 g body weight.
Animals were observed daily for mortality. Tumor dimensions and body weights were collected twice weekly starting with the first day of treatment and including the day of study termination. When the median tumor in the vehicle-treated control group in each study reached approximately 4,000 mg, the study was terminated. Tumors from each animal were harvested, wet weights were recorded, and tumors were processed for determination of MVD by CD-31 staining. Tumor weights (mg) were calculated using the equation for an ellipsoid sphere (l×w^2)/2=mm^3, where l and w refer to the larger and smaller dimensions collected at each measurement and assuming unit density (1 mm^3=1 mg).

RPMI 8226 tumor = test: RPMI 8226 human myeloma tumor xenograft; format: in vivo, CB17 SCID mice
Procedure: Nude mice (CB17 SCID, aged 4-5 weeks, weight 18-22 gm, female mice obtained from Harlan) were injected sc with RPMI 8226 cells harvested from tissue culture (˜1×10^7 cells/mouse). When tumors grew to approximately 100 mm^3 in size, animals were pair-matched by tumor size into treatment and control groups (10 mice per group). Initial dosing began Day 1 following pair-matching. Animals in all groups were dosed by weight (0.01 ml per gram; 10 ml/kg). […] Bortezomib was administered by intravenous injection via tail vein once every three days for six treatments (Q3D×6).
Individual and group mean tumor volumes±SEM are recorded twice weekly until study completion beginning Day 1. Final mean tumor volume±SEM for each group are reported at study completion; animals experiencing partial or complete tumor regressions or animals experiencing technical or drug-related deaths are censored from these calculations.

DU145 tumor = test: SC DU145 prostate tumor xenograft; format: in vivo, nude NCr (nu/nu) mice; conditions: LT1009 50 mg/kg ip q2d; Avastin 20 mg/kg q4d; Paclitaxel 7.5 mg/kg q1d×5
Procedure: Nude mice were implanted sc near the right flank with one fragment per mouse of DU145 tumor from an in vivo passage. All treatments were initiated the day when 60 mice in each experiment established tumors ranging in size from approximately 100 to 200 mm^3. […] Paclitaxel and Avastin were administered iv and ip at a dosage of 7.5 mg/kg/dose and 20 mg/kg/dose, q1d×5 and q4d, respectively, injected in a volume of 0.1 mL/10 g body weight.
During the course of the study tumor growth was monitored by measuring the sc tumors on three axes and calculating the volume. At the end of the study final tumor weights and volumes were determined and then the mice were sacrificed, the tumors harvested. Microvascular densities (MVD) of the tumors were then determined by CD-31 staining.

[1] = Surface plasmon resonance (Biacore 2000) binding to S1P-coated chip; conditions: read-out: Binding Affinity (KD1)
Procedure: Each concentration was tested in duplicate. […] All data were collected at 25° C.

[2] = Thermochallenge stability of antibody variants (TM); format: physicochemical
Procedure: iii. Stability. The humanized variants were tested for stability after challenge at high temperature. The approximate midpoints of the thermal unfolding transitions (TM) were determined for every humanized variant by subjecting the supernatants to temperatures ranging from 60 to 74° C. […] The binding properties of each variant were determined before and after thermochallenge.

[3] = test system: fibroblasts (Swiss 3T3, murine cardiac, WI-38); test: S1P-stimulated fibroblast proliferation, migration, collagen expression and myofibroblast differentiation; format: cell-based; conditions: 1 μg/mL antibody
Procedure: See Example 7, below, for experimental details. […] In these experiments, fibroblasts were serum-starved and then treated with 0, 0.1, 0.5, or 1 μM S1P+/−1 μg/mL SPHINGOMAB for 12-24 hr. […] SPHINGOMAB neutralized each of these S1P effects. SPHINGOMAB reduced perivascular fibrosis in vivo in a murine model of a permanent myocardial infarction (E).
S1P makes profound contributions to wound healing by activating fibroblast migration, proliferation and collagen production; SPHINGOMAB neutralizes these effects. Several studies using multiple types of fibroblasts confirm S1P's ability to promote wound healing: 1) S1P increased Swiss-3T3 fibroblast proliferation as measured by ^3H-thymidine incorporation using standard methods (FIG. 7A); 2) S1P promoted the migration of cardiac fibroblasts in a standard scratch wound healing assay. […] In each of these assays, SPHINGOMAB neutralized S1P's. It is anticipated that ocular fibroblasts would respond similarly to S1P and SPHINGOMAB.

CNV lesions = test: Laser-induced rupture of Bruch's membrane, murine CNV model (Example 4); format: in vivo, C57BL6/J mice; conditions: 0.5 μg
Procedure: Female C57BL6/J mice were subjected to laser-induced rupture of Bruch's membrane and administered either 0.5 μg of Sphingomab or an isotype-matched non-specific (NS) antibody diluted in 2 μl of physiological saline. Mice were sacrificed 14 and 28 days after laser rupture.
To induce CNV lesions, the pupils were dilated with ophthalmic tropicamide (0.5%) and phenylephrine (2.5%). A coverslip was placed on the eye. An Oculight GL 532 nm (Iridex Corporation, Mountain View, Calif.) coupled to a slit lamp set to deliver a 100 msec pulse at 150 mW with a 50 μm spot size was used to rupture Bruch's membrane in three quadrants of the right eye located approximately 50 μm from the optic disc at relative 9, 12 and 3 o'clock positions. The left eye served as an uninjured control in all cases. Any lesion not associated with a vapor bubble or lesions that became confluent were excluded from analysis.
To measure CNV lesion size, choroidal flatmounts of the sclera-choroid-RPE complex were prepared and stained for vasculature (R. communis agglutinin I; red) and pericytes (CD 140b; green). […]
To assess collagen deposition, the sclera-choroid-RPE complex was stained with Masson's Trichrome. […] Approximately 30 sections per lesion were evaluated. Quantitation of the volume of collagen deposition was calculated in the same manner as described for CNV lesion volume.

[4] = LT1009 50 mg/kg IP Q3D to end, Bortezomib iv Q3D×6

LT1009: humanized anti-S1P IgG1/kappa mAb with Cys to Ala in HCDR2, light chain with 5 backmutations; SEQ ID NO: 31/32
% Reduction compared to Vehicle-Treated Mice (HT29 tumor): 13% | Final Tumor Weights (HT29 tumor): 2390.63 mg | % Reduction compared to Vehicle-Treated Mice (RPMI 8226 tumor; LT1009 25 mg/kg IP Q3D to end): 11% | Final Tumor Weights (RPMI 8226 tumor; LT1009 25 mg/kg IP Q3D to end): 1860 mg | % Reduction compared to Vehicle-Treated Mice (RPMI 8226 tumor; [4]): 5% | Final Tumor Weights (RPMI 8226 tumor; [4]): 1978 mg | % Reduction compared to Vehicle-Treated Mice (DU145 tumor): 28% | Final Tumor Weights (DU145 tumor): 2242 mg

B1: LT1002: murine anti-S1P monoclonal antibody, IgG1 kappa, from hybridoma clone 306D326.26 (antibody, listed as Mus sp., V domains shown)
VH: QAHLQQSDAELVKPGASVKISCKVSGFIFIDHTIHWMKQRPEQGLEWIGCISPRHDITKYNEMFRGKATLTADKSSTTAYIQVNSLTFEDSAVYFCARGGFYGSTIWFDFWGQGTTLTVS
VL: ETTVTQSPASLSMAIGEKVTIRCITTTDIDDDMNWFQQKPGEPPNLLISEGNILRPGVPSRFSSSGYGTDFLFTIENMLSEDVADYYCLQSDNLPFTFGSGTKLEIK
Kd [1]: 26 pM | TM (approximate midpoint of thermal unfolding transition) [2]: 65 °C | effect on S1P-stimulated fibroblast proliferation, migration, collagen expression, myofibroblast differentiation [3]: neutralized | choroidal neovascularization (CNV lesions; 14 and 28 days after laser rupture): dramatically attenuates | fibrosis associated with CNV lesion formation (CNV lesions; 28 days after laser rupture): significantly reduces
